Experimental data taken from the METLIN SMRT retention time set (Domingo-Almenara et al. 2019).

assay: gradient 5% acetonitrile 3 min, to 50% in 2 min, to 85% in 15 min, held 3 min, 100 µL/min; conditions: column: Zorbax Extend-C18 2.1 x 50 mm; eluents: water / acetonitrile, 0.1% formic acid
How it was run: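 Retention time was recorded from adduct peaks, which were picked computationally and each inspected manually. Pure standards ran in mixtures of ~100 molecules on HPLC coupled to a quadrupole time-of-flight mass spectrometer, in positive and negative ionization mode, through a Zorbax Extend-C18 column (2.1 × 50 mm, 1.8 μm) at 100 μL/min. Eluents were water and acetonitrile, each with 0.1% formic acid.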

SMILES | RP-LC retention time [s]
Cc1ccc2c(=O)c(C(=O)Nc3ccc(C)c(C)c3)c[nH]c2n1 | 894
O=C(CCNc1cnc2cnccn12)NCc1ccccc1C(F)(F)F | 585
O=C(c1cccs1)N1CCc2cc(-c3csc(C4CC4)n3)ccc21 | 1150
O=C(NCCC1CCN(C(=O)Nc2ccc(F)cc2F)CC1)c1ccsc1 | 757
O=C(Cn1cnc2nc(N3CCC(C(=O)NC4CC4)CC3)sc2c1=O)Nc1ccc(Cl)cc1 | 686
COc1cccc(C(=O)CSc2ccc(NC(=O)C3CC3)nn2)c1 | 797
Cc1ccc(-c2noc(-c3ccccc3S(=O)(=O)N3CC=C(c4ccccc4)CC3)n2)cc1 | 1350
Clc1ccccc1-c1noc(Cc2nnc(-c3cccc(Br)c3)o2)n1 | 1100
O=C(NCCS(=O)(=O)N1CCc2ccccc2C1)C1CC1 | 695
Cc1ccc(C2Cn3cnc(C(=O)N4CCC(C(=O)NCc5ccc(F)cc5F)CC4)c3CO2)cc1 (centres undefined) | 830
CCOCC(=O)Nc1ccc2c(c1)Sc1ncccc1C(=O)N2CC | 697
CCC(=O)N1CCOc2ccc(NC(=O)C3CC3)cc2C1 | 674
Cc1cc(NC(=O)c2ccccc2C(F)(F)F)sn1 | 713
CCCN1C(=O)c2cccnc2Sc2cc(C(=O)N3CCOCC3)ccc21 | 682
COc1ccc(-c2nnc(COc3ccc(NC(=O)Cc4cccs4)cc3)o2)cc1 | 900
O=C(C1CC1)N1CCC(c2noc(-c3ccccc3)n2)C1 (centres undefined) | 956
CCNC(=O)C1CCCN(c2nc3ncn(CC(=O)Nc4cc(F)ccc4C)c(=O)c3s2)C1 (centres undefined) | 689
CCCS(=O)(=O)c1nc2ccc(NS(=O)(=O)c3ccc(F)c(F)c3)cc2s1 | 973
COc1cccc(-c2ccc(=O)n(CCc3nc(-c4cccc(Br)c4)no3)n2)c1 | 1080
COCCNS(=O)(=O)c1ccc(-c2c(C)noc2C)cc1 | 764

SMILES | RP-LC retention time [s]
O=C(C1=NN(Cc2cccc(F)c2)c2ccc(Cl)cc2S1(=O)=O)N1CCOCC1 | 875
CCOC(=O)Cc1ccc(NC(=O)NCc2c(C)nn(CC)c2C)cc1 | 649
Cc1ccc(CNC(=O)C2(C)CN(S(C)(=O)=O)CC(=O)N2c2ccc(Cl)cc2)cc1 (centres undefined) | 850
CN(CCc1noc(-c2ccc(C(=O)N3CCOCC3)cc2)n1)C(=O)COc1ccc(Cl)cc1 | 766
Cc1cccn2cc(-c3ccc(NS(=O)(=O)c4ccccc4)cc3)nc12 | 617
O=C(Cn1nc(S(=O)(=O)c2ccccc2)ccc1=O)Nc1ccc2c(c1)OCO2 | 796
CN1C(=O)Cc2ccccc2C1C(=O)NCc1ccco1 (centres undefined) | 668
O=C(CCc1csc2nc(-c3ccc(Cl)cc3)cn12)Nc1nccs1 | 774
Cc1ccc(NC(=O)N2CCC(CC(=O)N3CCCCC3)CC2)cc1C | 793
CCCC(=O)N1CCC(C(=O)N2c3ccccc3CC2C)CC1 (centres undefined) | 794
COC(=O)c1cccc(N2C=C(C#N)S(=O)(=O)c3cc(F)ccc32)c1 | 872
O=C(CSc1nc2ncccc2[nH]1)N1CCN(c2ccc(F)cc2)CC1 | 649
Cc1cc(C)cc(NC(=O)Cn2cc(-c3nnc(C)o3)c3ccccc32)c1 | 903
Cc1ccc(CNC(=O)C2CCN(S(=O)(=O)c3ccc4[nH]c(=O)ccc4c3)CC2)cc1 | 738
CCc1ccc(NC(=O)Cn2c(=O)n(-c3ccc(F)cc3)c(=O)c3c2cc(C)n3C)cc1 | 888
COCCCn1cc(C(=O)N2CCc3ccccc3C2)c2nn(-c3ccccc3)c(=O)c-2c1 | 770
OCCn1cc(-c2ccc3c(c2)CC/C3=N\O)c(-c2ccncc2)n1 | 603
O=C(CSc1nnc2ccccn12)N1CCOCC1 | 551
O=C(Cn1cccc(-c2nc(-c3ccc(Br)cc3)no2)c1=O)Nc1ccccc1 | 968
O=C(Nc1cccc(OCc2nnc(-c3ccc(F)cc3)o2)c1)C1CC(=O)N(c2ccccc2)C1 (centres undefined) | 895

SMILES | RP-LC retention time [s]
CNC(=O)Cc1csc(-c2ccccc2F)n1 | 725
CCCn1ccc2sc(C)c(C(=O)N3CCN(c4ccccc4F)CC3)c2c1=O | 916
O=C(CN1CCc2nc(NC(=O)C3CC3)sc2C1)Nc1ccccc1C(F)(F)F | 620
Cc1nc2ccccc2c(=O)n1Cc1noc(-c2cccc(Br)c2)n1 | 948
CNC(=O)[C@@H]1C[C@H](Oc2ccccc2)CN1C(=O)c1ccoc1 | 666
O=C(NCc1ccc(Br)cc1)c1cn2nc(Cl)ccc2n1 | 882
O=C(NCC(O)c1ccsc1)NC1CCCCC1 (centres undefined) | 658
CC(NC(=O)c1ccccc1)c1nc(-c2ccc3c(c2)nnn3C)no1 (centres undefined) | 756
CC(CCNC(=O)c1ccc(NC(=O)C2=CSCCO2)cc1)N1CCCC1 (centres undefined) | 600
O=C(Nc1cccc(C(F)(F)F)c1)N1CC(c2nc(-c3cccs3)no2)C1 | 917
CC(C)Cn1cc(CCNC(=O)Nc2c(F)cccc2F)c2cccnc21 | 755
Cc1ccc(C(=O)NCc2nc(-c3ccc4c(c3)nnn4C3CCCC3)no2)cc1 | 969
CC(C)CNC(=O)CCC1CCN(c2cc(NC3CC3)ncn2)CC1 | 615
O=C(NCCn1nc(-c2ccco2)ccc1=O)c1ccc2c(c1)ncn2-c1ccccc1 | 629
Cc1cccc(NC(=O)N2CCN(c3cnn4c(C5CC5)nnc4c3)CC2)c1 | 647
CCC(=O)N1CCN(c2nc(CC(C)C)c3c(c2C#N)CC(C)(C)OC3)CC1 | 1110
CC(C)CNC(=O)c1ccc(-c2cccs2)nc1 | 825
Cc1ccc(Nc2nc(C(=O)NCc3ccc(C)o3)nc3ccccc23)cc1 | 847
CCCc1noc(-c2ccc3nnc(CC(=O)Nc4ccc(F)c(C)c4)n3c2)n1 | 921

Continued, values first:

RP-LC retention time [s] | SMILES
770 | O=C1NC2(CCN(C(=O)NCc3cccc(F)c3)CC2)Nc2cc(Cl)ccc21
835 | COc1ccc(C2=NC3(CCN(C(=O)Nc4ccc(Cl)cc4)CC3)NC2=O)cc1
814 | CC(C)CNC(=O)c1nc(-c2ccnc(N3CCC(C)CC3)c2)no1
613 | CCN1CCN(C(=O)CC(c2cc(OC)c(OC)c(OC)c2)N2Cc3ccccc3C2=O)CC1 (centres undefined)
747 | Cc1ccc(C)c(NC(=O)C2CCN(S(=O)(=O)c3cc(C(=O)N4CCCC4)n(C)c3)CC2)c1
806 | CCN1c2ccc(C)cc2C(=O)NC12CCN(C(=O)c1ccccc1F)CC2
703 | COC1CCOC2(CCN(C(=O)c3cccs3)CC2)C1 (centres undefined)
922 | Cc1ccc2c(c1)N(CCCC(=O)Nc1ccc(C)c(C)c1)C(=O)CO2
901 | Cc1ccc(NC(=O)c2cc(C(C)C)n(C3CCS(=O)(=O)C3)n2)cc1 (centres undefined)
600 | COc1ccc(N(C)C(=O)c2nc(C)n(C3CCN(S(C)(=O)=O)CC3)c2C)cc1
821 | CCc1ccccc1NC(=O)C1CCCN1S(=O)(=O)c1cc2c(cc1C)NC(=O)CO2 (centres undefined)
859 | Cc1ccc(C)c(NS(=O)(=O)c2cc3c(s2)CCN(C(=O)C2CCC2)C3)c1
1020 | Cc1cccc(NC(=O)C2CCCN(c3nc4ccsc4c(=O)n3-c3cccc(C)c3)C2)c1 (centres undefined)
731 | CCc1ccccc1NC(=O)N1CCC2(CC1)NC(=O)c1ccccc1N2C
883 | COCCn1cc2c3c(cccc31)CN(C(=O)Nc1ccc(OC)cc1OC)CC2
705 | Cc1ccc(C)c(NC(=O)Cn2cnc3nc4c(cc3c2=O)CCCC4)c1
993 | Cc1cc(Br)ccc1NC(=O)c1cc2n(n1)CCCC2
1200 | COc1ccc(N2CCN(c3cc(SCC(=O)Nc4cc(Cl)ccc4OC)ncn3)CC2)cc1
686 | COc1ccc(OC)c(NC(=O)NCCc2cn(C)c3ncccc23)c1
865 | COC(=O)C(C)NC(=O)N1CCC2(CC1)Nc1cc(F)ccc1-n1cccc12 (centres undefined)
679 | COc1cccc(OC)c1C(=O)N1CCCC1c1cc(C)on1 (centres undefined)
775 | Cc1nn(C(C)C)c(C)c1S(=O)(=O)N1CCN(C(=O)c2ccsc2)CC1
1250 | CC(=O)Nc1cc(C(=O)N2CCN(c3cc(C)ccc3C)CC2)c2ccc(C)nc2c1
717 | COc1ccc(NC(=O)Cn2c(N3CCCCC3)nc(C)cc2=O)cc1F
568 | Cc1oc2ncn(CC(C)C)c(=O)c2c1C(=O)N1CCN(c2ccccn2)CC1
794 | COc1ccc(NC(=O)Cn2nc(N3CCOCC3)c3ccccc3c2=O)cc1Cl
650 | COCCn1ncc(N2CCC(C(=O)N(C)CC(=O)Nc3ccc(F)cc3)C2)cc1=O (centres undefined)
749 | Cc1ccc(NC(=O)C2CCN(C(=O)C3Sc4ccccc4NC3=O)CC2)cc1 (centres undefined)
654 | COc1cc(OC)c(NC(=O)C2=C(C)C(=O)OC23CCN(C(C)C)CC3)cc1Cl
796 | COc1ccc(OC)c(S(=O)(=O)N2CCCC(C(=O)NCC(C)C)C2)c1 (centres undefined)
